Key:
Test in all cases: relative viability (nuclei count vs DMSO), 5 days (fraction); higher = more cells survive
[1] = tested on: NCI-H1563
Summary of the method: (§1)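 Cells from lung cancer lines were seeded into 1536-well plates and, one day later, dosed by pin tool. Treatments were either a single drug or a fixed dose of an anchor drug with five library-drug doses (not always all listed) in √10 steps. After 5 days, nuclei were stained in a one-step fixation (final 0.05% Triton X-100, 1% formaldehyde, 1 ug/ml Hoechst) and counted on 4× images, and relative viability is the treated-to-vehicle nuclei ratio, as the median of duplicate plates.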

[2] = tested on: 201T
Summary of the method: as §1

[3] = tested on: SW 1573
Summary of the method: as §1

[4] = tested on: NCI-H727
Summary of the method: as §1

[5] = tested on: NCI-H1650
Summary of the method: as §1

[6] = tested on: H3255
Summary of the method: as §1

[7] = tested on: NCI-H1793
Summary of the method: as §1

[8] = tested on: LK-2
Summary of the method: as §1

[9] = tested on: NCI-H2228
Summary of the method: as §1

[10] = tested on: HCC-44
Summary of the method: as §1

[11] = tested on: LC-2-ad
Summary of the method: as §1

[12] = tested on: NCI-H23
Summary of the method: as §1

[13] = tested on: NCI-H596
Summary of the method: as §1

[14] = tested on: PC-14
Summary of the method: as §1

[15] = tested on: COR-L23
Summary of the method: as §1

[16] = tested on: A-427
Summary of the method: as §1

[17] = tested on: LU99A
Summary of the method: as §1

[18] = tested on: NCI-H460
Summary of the method: as §1

[19] = tested on: LCLC-103H
Summary of the method: as §1

[20] = tested on: NCI-H2347
Summary of the method: as §1

[21] = tested on: LCLC-97TM1
Summary of the method: as §1

SMILES: CC(=O)O[C@@]12CO[C@@H]1C[C@H](O)[C@@]1(C)C(=O)[C@H](O)C3=C(C)[C@@H](OC(=O)[C@H](O)[C@@H](NC(=O)OC(C)(C)C)c4ccccc4)C[C@@](O)([C@@H](OC(=O)c4ccccc4)[C@H]21)C3(C)C [Docetaxel] + CS(=O)(=O)N1CCN(Cc2cc3nc(-c4cccc5[nH]ncc45)nc(N4CCOCC4)c3s2)CC1 [Pictilisib] (partner 1 µM)
- relative viability ([1]; first compound 0.0002 µM): 0.662
- relative viability ([1]; first compound 0.000632 µM): 0.683
- relative viability ([1]; first compound 0.002 µM): 0.71
- relative viability ([1]; first compound 0.006325 µM): 0.564
- relative viability ([1]; first compound 0.02 µM): 0.506
- relative viability ([2]; first compound 0.0002 µM): 0.683
- relative viability ([2]; first compound 0.000632 µM): 0.672
- relative viability ([2]; first compound 0.002 µM): 0.557
- relative viability ([2]; first compound 0.006325 µM): 0.567
- relative viability ([2]; first compound 0.02 µM): 0.289
- relative viability ([3]; first compound 0.0002 µM): 0.372
- relative viability ([3]; first compound 0.000632 µM): 0.314
- relative viability ([3]; first compound 0.002 µM): 0.196
- relative viability ([3]; first compound 0.006325 µM): 0.153
- relative viability ([3]; first compound 0.02 µM): 0.144
- relative viability ([4]; first compound 0.0002 µM): 0.309
- relative viability ([4]; first compound 0.000632 µM): 0.4
- relative viability ([4]; first compound 0.002 µM): 0.255
- relative viability ([4]; first compound 0.006325 µM): 0.213
- relative viability ([4]; first compound 0.02 µM): 0.182
- relative viability ([5]; first compound 0.0002 µM): 0.431
- relative viability ([5]; first compound 0.000632 µM): 0.289
- relative viability ([5]; first compound 0.002 µM): 0.241
- relative viability ([5]; first compound 0.006325 µM): 0.146
- relative viability ([5]; first compound 0.02 µM): 0.13
- relative viability ([6]; first compound 0.0002 µM): 0.395
- relative viability ([6]; first compound 0.000632 µM): 0.544
- relative viability ([6]; first compound 0.002 µM): 0.272
- relative viability ([6]; first compound 0.006325 µM): 0.21
- relative viability ([6]; first compound 0.02 µM): 0.195
- relative viability ([7]; first compound 0.0002 µM): 0.323
- relative viability ([7]; first compound 0.000632 µM): 0.369
- relative viability ([7]; first compound 0.002 µM): 0.279
- relative viability ([7]; first compound 0.006325 µM): 0.289
- relative viability ([7]; first compound 0.02 µM): 0.204
- relative viability ([8]; first compound 0.0002 µM): 0.496
- relative viability ([8]; first compound 0.000632 µM): 0.404
- relative viability ([8]; first compound 0.002 µM): 0.216
- relative viability ([8]; first compound 0.006325 µM): 0.25
- relative viability ([8]; first compound 0.02 µM): 0.203
- relative viability ([9]; first compound 0.0002 µM): 0.291
- relative viability ([9]; first compound 0.000632 µM): 0.153
- relative viability ([9]; first compound 0.002 µM): 0.138
- relative viability ([9]; first compound 0.006325 µM): 0.18
- relative viability ([9]; first compound 0.02 µM): 0.131
- relative viability ([10]; first compound 0.0002 µM): 0.406
- relative viability ([10]; first compound 0.000632 µM): 0.44
- relative viability ([10]; first compound 0.002 µM): 0.421
- relative viability ([10]; first compound 0.006325 µM): 0.144
- relative viability ([10]; first compound 0.02 µM): 0.0949
- relative viability ([11]; first compound 0.0002 µM): 0.29
- relative viability ([11]; first compound 0.002 µM): 0.106
- relative viability ([11]; first compound 0.006325 µM): 0.113
- relative viability ([11]; first compound 0.02 µM): 0.0847
- relative viability ([12]; first compound 0.0002 µM): 0.499
- relative viability ([12]; first compound 0.000632 µM): 0.403
- relative viability ([12]; first compound 0.002 µM): 0.248
- relative viability ([12]; first compound 0.006325 µM): 0.185
- relative viability ([12]; first compound 0.02 µM): 0.144
- relative viability ([13]; first compound 0.0002 µM): 0.405
- relative viability ([13]; first compound 0.000632 µM): 0.252
- relative viability ([13]; first compound 0.002 µM): 0.452
- relative viability ([13]; first compound 0.006325 µM): 0.297
- relative viability ([13]; first compound 0.02 µM): 0.256
- relative viability ([14]; first compound 0.0002 µM): 0.629
- relative viability ([14]; first compound 0.000632 µM): 0.376
- relative viability ([14]; first compound 0.002 µM): 0.0774
- relative viability ([14]; first compound 0.006325 µM): 0.0423
- relative viability ([14]; first compound 0.02 µM): 0.0293
- relative viability ([15]; first compound 0.0002 µM): 0.632
- relative viability ([15]; first compound 0.000632 µM): 0.649
- relative viability ([15]; first compound 0.002 µM): 0.42
- relative viability ([15]; first compound 0.006325 µM): 0.124
- relative viability ([15]; first compound 0.02 µM): 0.0817
- relative viability ([16]; first compound 0.0002 µM): 0.766
- relative viability ([16]; first compound 0.000632 µM): 0.885
- relative viability ([16]; first compound 0.002 µM): 0.488
- relative viability ([16]; first compound 0.006325 µM): 0.23
- relative viability ([16]; first compound 0.02 µM): 0.158
- relative viability ([17]; first compound 0.0002 µM): 0.337
- relative viability ([17]; first compound 0.000632 µM): 0.249
- relative viability ([17]; first compound 0.002 µM): 0.267
- relative viability ([17]; first compound 0.006325 µM): 0.191
- relative viability ([17]; first compound 0.02 µM): 0.148
- relative viability ([18]; first compound 0.0002 µM): 0.351
- relative viability ([18]; first compound 0.000632 µM): 0.3
- relative viability ([18]; first compound 0.002 µM): 0.144
- relative viability ([18]; first compound 0.006325 µM): 0.0682
- relative viability ([18]; first compound 0.02 µM): 0.0373
- relative viability ([19]; first compound 0.0002 µM): 0.537
- relative viability ([19]; first compound 0.000632 µM): 0.514
- relative viability ([19]; first compound 0.002 µM): 0.612
- relative viability ([19]; first compound 0.006325 µM): 0.455
- relative viability ([19]; first compound 0.02 µM): 0.251
- relative viability ([20]; first compound 0.0002 µM): 0.462
- relative viability ([20]; first compound 0.000632 µM): 0.564
- relative viability ([20]; first compound 0.002 µM): 0.696
- relative viability ([20]; first compound 0.006325 µM): 0.647
- relative viability ([20]; first compound 0.02 µM): 0.066
- relative viability ([21]; first compound 0.000632 µM): 0.206
- relative viability ([21]; first compound 0.002 µM): 0.113
- relative viability ([21]; first compound 0.006325 µM): 0.112
- relative viability ([21]; first compound 0.02 µM): 0.102

Source: the supplement of paper PMC10307832
